Results as given in patent US5962487A, “Antipicornaviral compounds and methods for their use and preparation” (Agouron Pharmaceuticals, Inc., priority 1997, dated 1999).

Molecular target: T1, Rhinovirus 3C protease (RVP) serotype-14 (Human rhinovirus 14, UniProt P03303)
T1 construct: Recombinant Rhinovirus 3C proteases from serotypes 14, 16, 2 or 89 were prepared; made in house
Assay: Inhibition of Rhinovirus Protease, serotype 14 (FRET assay)
Assay type: biochemical
Settings: read-out: kobs/I
How it was run: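 Recombinant HRV 3C protease (50–100 nM) in 50 mM tris pH 7.6, 1 mM EDTA, 2% DMSO, with ~1 μM DABCYL-GRAVFQGPVG-EDANS FRET substrate; cleavage read as fluorescence increase. Ki: compound and enzyme preincubated 10 min at 30° C before substrate start; kobs/I from enzyme-start progress curves. Values are percent inhibition at stated μM, or Ki.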

T1 sequence (P03303 1538-1719): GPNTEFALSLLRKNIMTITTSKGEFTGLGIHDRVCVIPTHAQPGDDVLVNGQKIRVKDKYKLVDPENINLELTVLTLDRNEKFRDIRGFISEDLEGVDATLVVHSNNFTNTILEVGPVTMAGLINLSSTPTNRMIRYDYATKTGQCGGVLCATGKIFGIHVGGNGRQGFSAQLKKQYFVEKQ

`CCOC(=O)/C=C/[C@H](CCC(N)=O)NC(=O)[C@H](Cc1ccccc1)N(C)C(=O)[C@H](CC(C)C)NC(=O)OCc1ccccc1` [Compound 2, Ethyl-3-(CBZ-L-Leu-L-N-Me-Phe-L-Gln)-E-Propenoate] was tested, and the kinact/KI was 5300 M⁻¹ s⁻¹.
